Consider five molecules from patent US9045493B2, “Furo[3,2-b]- and thieno[3,2-b]pyridin derivatives” (Merck Patent GmbH, priority 2012, dated 2015).

Broadly, the IC50 is the concentration at which inhibition is half-maximal.

One assay deals with phospho-IRF3 @ Ser 386. The assay can be described thus: Cell test: dose response inhibition of phospho-IRF3 @ Ser 386 in MDA-MB-468 cells. Format: cell-based. Conditions: Homo sapiens, Poly(I:C) stimulation, read-out: IC50 (reference inhibitor, phospho-IRF3 cell test). The source says:
Dose Response Inhibition of Phospho-IRF3 @ Ser 386 Cell/MDAMB468/INH/PHOS/IMAG/pIRF3
This assay has been devised in order to assess the efficacy/potency of TBK1/IKKε inhibitor compounds based on the immunocytochemical detection of nuclear localised phospho-IRF3, a target directly downstream of TBK1.
Treatment with Polyinosine-polycytidylic acid (poly(I:C), a synthetic analog of doublestranded RNA (dsRNA), a molecular pattern associated with viral infection which is recognized by Toll-like receptor 3 (TLR3) is used to induce TBK1/IKKe activity and IRF3 phosphorylation at Ser386.
• Day 1: MDA-MB-468 cells are detached with HyQ-Tase, counted, and seeded into a 384-well clear bottom TC-surface plate at density of 10,000 cells per well in a total volume of 35 ul complete medium. Alternatively cells are directly seeded from frozen vials. • Day 2: Cells are pre-treated with inhibitor compounds for 1 h prior to Poly(I:C) stimulation. After 2 h of incubation with Poly(I:C), cells are fixed in (para)formaldehyde (PFA) and permeabilized with methanol (MeOH). The cells are then blocked and incubated with an anti-pIRF3 antibody at 4° C. overnight. • Day 3: The primary antibody is washed off, an AlexaFluor488-conjugated secondary is added, cells are counterstained with propidium iodide followed by image acquisition on IMX Ultra high content reader.

The target in assay [1] is T1, TANK binding kinase (TBK1) (Homo sapiens, UniProt Q9UHD2).
T1 sequence (Q9UHD2 1-729): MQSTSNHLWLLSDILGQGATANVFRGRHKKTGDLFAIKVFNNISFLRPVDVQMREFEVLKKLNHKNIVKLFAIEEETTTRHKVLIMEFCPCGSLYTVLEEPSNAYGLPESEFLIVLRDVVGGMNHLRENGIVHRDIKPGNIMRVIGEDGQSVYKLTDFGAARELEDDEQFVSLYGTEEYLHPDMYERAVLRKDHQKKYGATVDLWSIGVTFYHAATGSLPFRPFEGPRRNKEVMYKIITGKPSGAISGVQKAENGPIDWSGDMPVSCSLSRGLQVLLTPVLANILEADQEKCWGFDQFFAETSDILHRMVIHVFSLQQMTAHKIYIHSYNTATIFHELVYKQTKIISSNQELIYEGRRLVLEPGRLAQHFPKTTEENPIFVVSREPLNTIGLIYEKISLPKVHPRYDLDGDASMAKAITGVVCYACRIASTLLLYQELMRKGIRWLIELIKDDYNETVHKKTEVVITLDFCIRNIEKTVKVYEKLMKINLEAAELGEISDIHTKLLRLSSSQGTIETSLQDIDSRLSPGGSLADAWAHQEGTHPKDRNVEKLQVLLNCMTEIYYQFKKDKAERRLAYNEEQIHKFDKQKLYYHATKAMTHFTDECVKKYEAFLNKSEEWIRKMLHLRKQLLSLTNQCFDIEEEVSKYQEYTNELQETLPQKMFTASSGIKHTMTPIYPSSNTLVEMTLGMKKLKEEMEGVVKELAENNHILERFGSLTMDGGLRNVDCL
Put plainly: TBK1 enzyme assay (384-well Flashplate kinase assay). The assay is classed as biochemical. As to conditions: 10 μM ATP, 120 Min at 30° C. An outline of the steps: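 Radiometric Flashplate assay: 0.6 nM TBK1, 800 nM biotinylated MELK-derived peptide and 10 μM ATP with 33P-ATP, 120 min at 30 °C in MOPS/Mg-acetate buffer pH 7.5. Stopped with EDTA; nonspecific signal defined with 100 nM staurosporine; IC50 from counted radioactivity.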

Another assay addresses T2, IKKε (Homo sapiens, UniProt Q14164).
T2 sequence (Q14164 1-716): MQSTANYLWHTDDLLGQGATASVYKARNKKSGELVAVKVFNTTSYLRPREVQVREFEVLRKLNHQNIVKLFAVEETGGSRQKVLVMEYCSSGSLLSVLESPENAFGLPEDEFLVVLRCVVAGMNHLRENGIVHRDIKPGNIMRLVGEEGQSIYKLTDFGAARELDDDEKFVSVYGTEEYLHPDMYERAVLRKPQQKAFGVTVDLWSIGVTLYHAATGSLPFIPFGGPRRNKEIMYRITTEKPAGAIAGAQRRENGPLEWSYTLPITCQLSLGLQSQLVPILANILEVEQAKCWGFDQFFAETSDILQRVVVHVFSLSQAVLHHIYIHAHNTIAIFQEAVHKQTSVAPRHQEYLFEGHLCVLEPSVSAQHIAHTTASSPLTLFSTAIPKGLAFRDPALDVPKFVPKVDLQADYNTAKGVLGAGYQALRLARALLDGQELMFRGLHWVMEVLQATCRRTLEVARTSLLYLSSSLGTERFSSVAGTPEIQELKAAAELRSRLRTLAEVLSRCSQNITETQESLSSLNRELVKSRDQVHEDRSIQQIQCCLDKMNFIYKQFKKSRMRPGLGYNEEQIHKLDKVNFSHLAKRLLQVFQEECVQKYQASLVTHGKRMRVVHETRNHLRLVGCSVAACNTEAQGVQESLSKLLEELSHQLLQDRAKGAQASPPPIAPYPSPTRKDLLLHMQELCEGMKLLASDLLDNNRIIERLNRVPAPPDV
Put plainly: IKKε kinase assay (384-well Flashplate). As to conditions: 10 μM ATP, 2 hours at 30° C.; read-out: IKKε enzyme assay IC50. Format: biochemical. The essentials: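 1 nM IKKε with 800 nM biotinylated IκBα(19-42) peptide and 10 μM ATP spiked with ^33P-ATP, 2 h at 30 °C in MOPS buffer pH 7.5. EDTA stop, Flashplate capture, washes, then radioactivity counted; IC50 derived.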

With `O=C(NCCCNc1nc(Nc2cccc(NC(=O)N3CCCC3)c2)ncc1I)c1cccs1` [BX-795], the IC50 with phospho-IRF3 @ Ser 386 is 200 to 800 nM.

`COCCn1cc(-c2cc3nccc(-c4ccc(OC5CCOCC5)c(C#N)c4)c3o2)cn1` [Compound A8, 5-{2-[1-(2-methoxy-ethyl)-1H-pyrazol-4-yl]-furo[3,2-b]pyridin-7-yl}-2-(tetrahydro-pyran-4-yloxy)-benzonitrile]: the half-maximal inhibitory concentration (IC50) fell in the range of 3000 to 50000 nM in assay [1] and 300 to 3000 nM at IKKε.

For the molecule `N#Cc1cc(-c2ccnc3cc(-c4ccc(C(=O)N5CCNCC5)cc4)oc23)ccc1OC1CCOCC1` [Compound A34, 5-{2-[4-(piperazine-1-carbonyl)-phenyl]-furo[3,2-b]pyridin-7-yl}-2-(tetrahydro-pyran-4-yloxy)-benzonitrile], the half-maximal inhibitory concentration (IC50) (in assay [1]; on IKKε) was below 300 nM in each case.

With `Cn1cc(-c2cc3nccc(-c4ccc(OC5CCOCC5)c(C#N)c4)c3o2)cn1` [Compound A46], the IC50 (in assay [1]; at IKKε) was below 300 nM each time.

Regarding `N#Cc1cc(-c2ccnc3cc(-c4ccc(C(=O)N5CCNCC5)cc4)oc23)ccc1OC1CCOC1` (stereo not drawn) [Compound A43], the IC50 (in assay [1]; on IKKε) was below 300 nM throughout.
